# Assay results from US20240374631A1, “A COMPOSITION FOR IMPROVING GUT MICROBIOTA, BEHAVIOURAL PATTERN, ALPHA-SYNUCLEIN LEVELS, SLEEP PATTERN AND/OR SERUM MELATONIN” (GN Corporation Co Ltd, priority 2021, published 2024).
# System: gut microbiota
# Assay: Gut microbiome analysis (16S rRNA sequencing of fecal samples) in STAM model of NASH
# Format: in vivo, C57BL/6J mice
# Conditions: pre
# Excerpt: The study is reported in accordance with Animal Research: Reporting of In Vivo Experiments (ARRIVE) guidelines. C57BL/6J mice were obtained from Japan SLC, Inc. (Japan). All animals used in this study were cared for under the following guidelines: Act on Welfare and Management of Animals (Ministry of the Environment, Japan, Act No. 105 of Oct. 1, 1973), standards relating to the care and management of laboratory animals and relief of pain (Notice No. 88 of the Ministry of the Environment, Japan, Apr. 28, 2006) and the guidelines for proper conduct of animal experiments (Science Council of Japan, Jun. 1, 2006). Protocol approvals were obtained from SMC Laboratories, Japan's IACUC (Study reference no: […] Mice were maintained in a specific pathogen-free (SPF) facility under controlled conditions of temperature (23±3° C.), humidity (50±20%), lighting (12-hour artificial light and dark cycles; light from 8:00 to 20:00) and air exchange. The STAM model of NASH was induced as previously described [D10]. Mice were given a single subcutaneous injection of 200 μg streptozotocin (STZ, Sigma-Aldrich, USA) solution 2 days after birth and fed with a high-fat diet (HFD, 57 kcal % fat, Cat #HFD32, CLEA Japan, Inc., Japan) from 4-9 weeks of age. All mice develop liver steatosis and diabetes and at […] mice had established steatohepatitis, histologically. Studygroups: There were five study groups, described below. Eight mice were included in each study group. Eight NASH mice were orally administered vehicle supplemented with AFO-202 Beta Glucan at a dose of 1 mg/kg in a volume of 5 mL/kg once daily from 6 to 9 weeks of age. Eight NASH mice were orally administered vehicle supplemented with Telmisartan at a dose of 10 mg/kg once daily from 6 to 9 weeks of age. Frequency: Fecal samples were collected at the 6 weeks of age (before administration) and 9 weeks of age (before sacrifice). Procedure: At 6 weeks of age, fecal samples were collected from each mouse by clean catch method. […] A sterile petri dish was placed on the bench. Gently massage the abdomen, position the bottom of mouse over a fresh petri dish, and collect 1-2 fecal pellets. At sacrifice, fecal samples were aseptically collected from cecum. The tubes with feces were placed on ice immediately. These tubes were snap frozen in liquid nitrogen and stored at -80° C. for shipping. In this analysis, the 16S rRNA sequence data acquired by the next-generation sequencer from the fecal […] was used to perform community analysis using the QIIME2 program for microbial community analysis. The raw read data in FASTQ format output from the next-generation sequencer was trimmed to remove adapter sequences and low QV regions that may be included in the data. Cutadapt was used to remove adapter sequences from DNA sequencing reads. Trimmomatic was used as read trimming tool for Illumina NGS data. The adapter sequence was trimmed using the adapter trimming program “cutadapt” if the Trimming of the region at the end of the read sequence overlapped the corresponding sequence by at least one base (mismatch tolerance: 20%). When reads containing N were present in at least one of Read1 and Read2, both Read1 and Read2 were removed. Trimming of low QV regions was performed on the read data after processing using the QV trimming program “Trimmomatic” under the following conditions. The window of 20 bases is slid from the 5' side, and the area where the average QV is less than 20 is trimmed. After trimming, only the reads with more than 50 bases remaining in both Read1 and Read2 were taken as output. The microbial community analysis based on 16S rRNA sequence was performed on the sequence data trimmed in the previous section using the microbial community analysis program “QIIME2”. The annotation program “sklearn” included in QIIME2 is used to annotate the ASV (OTU) sequences. […]
compound,measurement,setting,value
CCCc1nc2c(C)cc(-c3nc4ccccc4n3C)cc2n1Cc1ccc(-c2ccccc2C(=O)O)cc1 [Telmisartan],Abundance S24-7/—/—,line r81,327
same,Abundance Lachnospiraceae/[Ruminococcus]/gnavus,line r83,120
same,Abundance Ruminococcaceae/Oscillospira/—,line r84,284
same,Abundance Ruminococcaceae/Anaerotruncus/—,line r85,638
same,Abundance Alcaligenaceae/Sutterella/—,line r86,191
same,Abundance S24-7/—/—,line r87,394
same,Abundance F16/—/—,line r88,329
same,Abundance Other/Other/Other,line r90,276
same,Abundance Lachnospiraceae/[Ruminococcus]/gnavus,line r91,168
same,Abundance S24-7/—/—,line r92,476
same,Abundance Rikenellaceae/—/—,line r93,259
same,Abundance Lachnospiraceae/[Ruminococcus]/gnavus,line r94,62
same,Abundance Lachnospiraceae/—/—,line r95,250
same,Abundance Clostridiaceae/Other/Other,line r96,693
same,Abundance Lachnospiraceae/—/—,line r97,78
same,Abundance Ruminococcaceae/Oscillospira/—,line r98,160
same,Abundance Enterococcaceae/Enterococcus/—,line r99,32
same,Abundance Rikenellaceae/—/—,line r100,239
same,Abundance S24-7/—/—,line r101,208
same,Abundance Lactobacillaceae/Lactobacillus/reuteri,line r102,0
same,Abundance Bacteroidaceae/Bacteroides/acidifaciens,line r103,161
same,Abundance Ruminococcaceae/Oscillospira/—,line r104,202
same,Abundance Enterobacteriaceae/Escherichia/coli,line r105,0
same,Abundance Ruminococcaceae/Oscillospira/—,line r106,152
same,Abundance —/—/—,line r107,228
same,Abundance S24-7/—/—,line r108,157
same,Abundance —/—/—,line r109,988
same,Abundance Other/Other/Other,line r110,463
same,Abundance Lachnospiraceae/—/—,line r111,46
same,Abundance Lachnospiraceae/[Ruminococcus]/gnavus,line r112,148
same,Abundance Lachnospiraceae/—/—,line r113,390
same,Abundance Enterobacteriaceae/Klebsiella/Other,line r114,0
same,Abundance Lachnospiraceae/—/—,line r115,76
same,Abundance Enterobacteriaceae/Klebsiella/—,line r116,0
same,Abundance —/—/—,line r117,0
same,Abundance Lactobacillaceae/Lactobacillus/—,line r118,4
same,Abundance Other/Other/Other,line r119,57
same,Abundance —/—/—,line r120,209
same,Abundance Erysipclotrichaceae/Allobaculum/—,line r121,203
same,Abundance —/—/—,line r122,131
same,Abundance Lachnospiraceae/—/—,line r123,207
same,Abundance —/—/—,line r124,362
same,Abundance Other/Other/Other,line r125,58
same,Abundance Lactobacillaceae/Lactobacillus/reuteri,line r126,0
same,Abundance Ruminococcaceae/Oscillospira/—,line r127,158
same,Abundance Lachnospiraceae/—/—,line r128,50
same,Abundance S24-7/—/—,line r130,64
same,Abundance Lachnospiraceae/—/—,line r131,315
same,Abundance S24-7/—/—,line r132,104
same,Abundance S24-7/—/—,line r133,60
same,Abundance Lachnospiraceae/—/—,line r134,19
same,Abundance —/—/—,line r135,28
same,Abundance Coriobacteriaceae/Adlercreutzia/—,line r136,110
same,Abundance —/—/—,line r137,200
same,Abundance Clostidiaceae/Other/Other,line r138,0
same,Abundance Turicibacteraceae/Turicibacter/—,line r139,125
same,Abundance Ruminococcaceae/Ruminococcus/—,line r140,193
same,Abundance Ruminococcaceae/Oscillospira/—,line r141,215
same,Abundance Dehalobacteriaceae/Dehalobacterium/—,line r142,43
same,Abundance Staphylococcaceae/Staphylococcus/Other,line r143,110
same,Abundance Rikenellaceae/—/—,line r144,61
same,Abundance Lachnospiraceae/—/—,line r145,87
same,Abundance —/—/—,line r146,60
same,Abundance Staphylococcaceae/Staphylococcus/sciuri,line r147,34
same,Abundance —/—/—,line r148,103
same,Abundance Ruminococcaceae/Ruminococcus/—,line r149,157
same,Abundance Coriobacteriaceae/Adlercreutzia/—,line r150,101
same,Abundance Ruminococcaceae/Oscillospira/—,line r151,61
same,Abundance Lachnospiraceae/Clostridium/Other,line r152,85
same,Abundance Lachnospiraceae/Coprococcus/—,line r153,151
same,Abundance Desulfovibrionaceae/—/—,line r154,50
same,Abundance —/—/—,line r155,94
same,Abundance Lachnospiraceae/—/—,line r156,0
same,Abundance Dehalobacteriaceae/Dehalobacterium/—,line r157,41
same,Abundance Coriobacteriaceae/Adlercreutzia/—,line r158,90
same,Abundance Lachnospiraceae/—/—,line r159,37
same,Abundance Lachnospiraceae/—/—,line r160,168
same,Abundance Ruminococcaceae/Oscillospira/—,line r161,0
same,Abundance Streptococcaceae/Streptococcus/—,line r163,0
same,Abundance Lachnospiraceae/[Ruminococcus]/gnavus,line r164,83
same,Abundance Lachnospiraceae/—/—,line r165,102
same,Abundance Lachnospiraceae/—/—,line r166,231
same,Abundance Coriobacteriaceae/Adlercreutzia/—,line r167,74
same,Abundance Erysipelotrichaceae/Clostridium/cocleatum,line r169,0
same,Abundance S24-7/—/—,line r170,53
same,Abundance Lachnospiraceae/—/—,line r171,27
same,Abundance Bacteroidaceae/Bacteroides/—,line r172,55
same,Abundance Ruminococcaceae/Oscillospira/—,line r173,59
same,Abundance Ruminococcaceae/—/—,line r174,41
same,Abundance Lachnospiraceae/Other/Other,line r175,52
same,Abundance Lachnospiraceae/Dorea/—,line r176,28
same,Abundance Lachnospiraceae/—/—,line r177,0
same,Abundance S24-7/—/—,line r178,168
same,Abundance Lachnospiraceae/—/—,line r179,92
same,Abundance Lactobacillaceae/Lactobaccilus/Other,line r180,0
same,Abundance —/—/—,line r181,34
same,Abundance Ruminococcaceae/Oscillospira/—,line r182,99
same,Abundance S24-7/—/—,line r183,55
same,Abundance S24-7/—/—,line r184,67
same,Abundance [Mogibacteriaceae]/—/—,line r185,36
same,Abundance Peptococcaceae/—/—,line r186,43
same,Abundance —/—/—,line r187,13
same,Abundance —/—/—,line r188,0
same,Abundance S24-7/—/—,line r189,76
